# In article PMC8788362, “Rational design and synthesis of 2-(1H-indazol-6-yl)-1H-benzo[d]imidazole derivatives as inhibitors targeting FMS-like tyrosine kinase 3 (FLT3) and its mutants” (Journal of Enzyme Inhibition and Medicinal Chemistry, 2022):
# Numbering of substitutions follows the chain as printed. Values joined by “and” are separate entries in the source; they are usually repeats but may differ in a detail not shown here. Identical values can stand only once. Like-named read-outs stand apart in the source and are kept apart here.
# How the values were obtained:
# c-Kit = biological target: T1, c-Kit (Homo sapiens, UniProt P10721); experiment: Reaction Biology Kinase HotSpot kinase assay; type: biochemical
# T1 construct: purchased Reaction Biology Corp. (Kinase HotSpot service)
# Description: (§1) (specific activity approx. 500 cpm/pmol, concentration as required).
# ABL1 = biological target: T2, ABL1 (Homo sapiens, UniProt P00519); experiment: Reaction Biology Kinase HotSpot kinase assay; type: biochemical
# T2 construct: purchased Reaction Biology Corp. (Kinase HotSpot service)
# Description: as §1
# CAMKK1 = biological target: T3, CAMKK1 (Homo sapiens, UniProt Q8N5S9); experiment: Reaction Biology Kinase HotSpot kinase assay; type: biochemical
# T3 construct: purchased Reaction Biology Corp. (Kinase HotSpot service)
# Description: as §1
# TRKC = biological target: T4, TRKC (Homo sapiens, UniProt Q16288); experiment: Reaction Biology Kinase HotSpot kinase assay; type: biochemical
# T4 construct: purchased Reaction Biology Corp. (Kinase HotSpot service)
# Description: as §1
# FLT3 (ITD)-NPOS = FLT3 (ITD)-NPOS (Homo sapiens, UniProt P36888, ITD); experiment: Reaction Biology Kinase HotSpot radiometric kinase assay; type: biochemical
# Description: as §1
# FLT3 (ITD)-W51 = biological target: T5, FLT3 (ITD)-W51 (Homo sapiens, UniProt P36888, DUP595-601); experiment: as above; type: biochemical
# T5 construct: purchased Reaction Biology Corp. (Kinase HotSpot service)
# Description: as §1
# FLT3 (F594_R595 ins R) = biological target: T6, FLT3 (F594_R595 ins R) (Homo sapiens, UniProt P36888, INS594R); experiment: as above; type: biochemical
# T6 construct: purchased Reaction Biology Corp. (Kinase HotSpot service)
# Description: as §1
# FLT3 (R595_E596 ins EY) = biological target: T7, FLT3 (R595_E596 ins EY) (Homo sapiens, UniProt P36888, INS595EY); experiment: as above; type: biochemical
# T7 construct: purchased Reaction Biology Corp. (Kinase HotSpot service)
# Description: as §1
# [1] = biological target: T8, FLT3 (Y591_V592 ins VDFREYEYD) (Homo sapiens, UniProt P36888, INS591VDFREYEYD); experiment: as above; type: biochemical
# T8 construct: purchased Reaction Biology Corp. (Kinase HotSpot service)
# Description: as §1
# BRAF (V599E) = biological target: T9, BRAF (V599E) (Homo sapiens, UniProt P15056, V600E); experiment: Kinase HotSpot kinase profiling; type: biochemical
# T9 construct: purchased Reaction Biology Corp. (Kinase HotSpot service)
# Description: as §1
# ALK = biological target: T10, ALK (Homo sapiens, UniProt Q9UM73); experiment: Kinase HotSpot kinase profiling; type: biochemical; conditions: read-out: % Inhibition ALK
# T10 construct: purchased Reaction Biology Corp. (Kinase HotSpot service)
# Description: as §1
# AKT1 = biological target: T11, AKT1 (Homo sapiens, UniProt P31749); experiment: Kinase HotSpot kinase profiling; type: biochemical; conditions: read-out: % Inhibition AKT1
# T11 construct: purchased Reaction Biology Corp. (Kinase HotSpot service)
# Description: as §1
# c-MER = biological target: T12, c-MER (Homo sapiens, UniProt Q12866); experiment: Kinase HotSpot kinase profiling; type: biochemical; conditions: read-out: % Inhibition c-MER
# T12 construct: purchased Reaction Biology Corp. (Kinase HotSpot service)
# Description: as §1
# FMS = biological target: T13, FMS (Homo sapiens, UniProt P07333); experiment: Kinase HotSpot kinase profiling; type: biochemical; conditions: read-out: % Inhibition FMS
# T13 construct: purchased Reaction Biology Corp. (Kinase HotSpot service)
# Description: as §1
# FGFR3 = biological target: T14, FGFR3 (Homo sapiens, UniProt P22607); experiment: Kinase HotSpot kinase profiling; type: biochemical; conditions: read-out: % Inhibition FGFR3
# T14 construct: purchased Reaction Biology Corp. (Kinase HotSpot service)
# Description: as §1
# c-Src = biological target: T15, c-Src (Homo sapiens, UniProt P12931); experiment: Kinase HotSpot kinase profiling; type: biochemical; conditions: read-out: % Inhibition c-Src
# T15 construct: purchased Reaction Biology Corp. (Kinase HotSpot service)
# Description: as §1
# ERK1 = biological target: T16, ERK1 (Homo sapiens, UniProt P27361); experiment: Kinase HotSpot kinase profiling; type: biochemical; conditions: read-out: % Inhibition ERK1
# T16 construct: purchased Reaction Biology Corp. (Kinase HotSpot service)
# Description: as §1
# AXL = biological target: T17, AXL (Homo sapiens, UniProt P30530); experiment: Kinase HotSpot kinase profiling; type: biochemical; conditions: read-out: % Inhibition AXL
# T17 construct: purchased Reaction Biology Corp. (Kinase HotSpot service)
# Description: as §1
# EGFR = biological target: T18, EGFR (Homo sapiens, UniProt P00533); experiment: Kinase HotSpot kinase profiling; type: biochemical; conditions: read-out: % Inhibition EGFR
# T18 construct: purchased Reaction Biology Corp. (Kinase HotSpot service)
# Description: as §1
# Aurora A = biological target: T19, Aurora A (Homo sapiens, UniProt O14965); experiment: Kinase HotSpot kinase profiling; type: biochemical; conditions: read-out: % Inhibition Aurora A
# T19 construct: purchased Reaction Biology Corp. (Kinase HotSpot service)
# Description: as §1
# FLT3-ITD = FLT3-ITD (Homo sapiens, UniProt P36888, ITD); experiment: Kinase HotSpot kinase profiling; type: biochemical
# Description: as §1
# AXL (R499C) = biological target: T20, AXL (R499C) (Homo sapiens, UniProt P30530, R499C); experiment: Kinase HotSpot kinase profiling; type: biochemical; conditions: read-out: % Inhibition AXL (R499C)
# T20 construct: purchased Reaction Biology Corp. (Kinase HotSpot service)
# Description: as §1
# c-MET = biological target: T21, c-MET (Homo sapiens, UniProt P08581); experiment: Kinase HotSpot kinase profiling; type: biochemical; conditions: read-out: % Inhibition c-MET
# T21 construct: purchased Reaction Biology Corp. (Kinase HotSpot service)
# Description: as §1
# FYN = biological target: T22, FYN (Homo sapiens, UniProt P06241); experiment: Kinase HotSpot kinase profiling; type: biochemical
# T22 construct: purchased Reaction Biology Corp. (Kinase HotSpot service)
# Description: as §1
# BTK = biological target: T23, BTK (Homo sapiens, UniProt Q06187); experiment: Kinase HotSpot kinase profiling; type: biochemical; conditions: read-out: % Inhibition BTK
# T23 construct: purchased Reaction Biology Corp. (Kinase HotSpot service)
# Description: as §1
# FLT3 wild type = biological target: T24, FLT3 wild type (Homo sapiens, UniProt P36888); experiment: Reaction Biology Kinase HotSpot radiometric kinase assay; type: biochemical; conditions: ATP 10 µM; read-out: FLT3 IC50
# T24 construct: purchased Reaction Biology Corp. (Kinase HotSpot service)
# T24 sequence (P36888 27-993): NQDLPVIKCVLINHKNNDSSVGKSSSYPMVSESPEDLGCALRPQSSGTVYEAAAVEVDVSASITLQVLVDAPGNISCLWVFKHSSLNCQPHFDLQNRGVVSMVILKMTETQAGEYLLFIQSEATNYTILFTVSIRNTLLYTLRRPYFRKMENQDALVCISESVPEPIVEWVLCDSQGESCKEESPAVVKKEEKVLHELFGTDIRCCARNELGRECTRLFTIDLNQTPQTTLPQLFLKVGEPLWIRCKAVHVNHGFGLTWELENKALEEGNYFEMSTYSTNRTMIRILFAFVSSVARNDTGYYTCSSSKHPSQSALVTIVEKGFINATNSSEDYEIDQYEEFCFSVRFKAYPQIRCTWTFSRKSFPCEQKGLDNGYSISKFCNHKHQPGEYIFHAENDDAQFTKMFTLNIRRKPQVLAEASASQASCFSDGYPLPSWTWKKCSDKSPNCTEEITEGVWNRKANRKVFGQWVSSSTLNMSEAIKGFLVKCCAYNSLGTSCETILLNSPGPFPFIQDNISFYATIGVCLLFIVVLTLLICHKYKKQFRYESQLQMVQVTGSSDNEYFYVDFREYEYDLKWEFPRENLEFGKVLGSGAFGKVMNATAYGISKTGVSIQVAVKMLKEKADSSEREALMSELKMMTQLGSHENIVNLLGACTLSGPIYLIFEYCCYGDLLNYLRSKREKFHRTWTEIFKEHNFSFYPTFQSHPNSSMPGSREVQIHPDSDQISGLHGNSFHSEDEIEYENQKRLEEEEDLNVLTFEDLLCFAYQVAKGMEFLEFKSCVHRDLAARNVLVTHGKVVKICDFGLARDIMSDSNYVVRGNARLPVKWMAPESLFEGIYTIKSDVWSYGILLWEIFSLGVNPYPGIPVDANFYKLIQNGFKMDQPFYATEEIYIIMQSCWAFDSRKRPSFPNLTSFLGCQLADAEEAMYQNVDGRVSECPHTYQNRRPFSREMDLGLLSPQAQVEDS
# Description: as §1
# FLT3 (D835Y) = biological target: T25, FLT3 (D835Y) (Homo sapiens, UniProt P36888, D835Y); experiment: as above; type: biochemical
# T25 construct: purchased Reaction Biology Corp. (Kinase HotSpot service)
# T25 sequence (P36888 27-993 D835Y): T24 sequence (P36888 27-993) with D809Y
# Description: as §1
# T3 sequence (Q8N5S9 whole entry): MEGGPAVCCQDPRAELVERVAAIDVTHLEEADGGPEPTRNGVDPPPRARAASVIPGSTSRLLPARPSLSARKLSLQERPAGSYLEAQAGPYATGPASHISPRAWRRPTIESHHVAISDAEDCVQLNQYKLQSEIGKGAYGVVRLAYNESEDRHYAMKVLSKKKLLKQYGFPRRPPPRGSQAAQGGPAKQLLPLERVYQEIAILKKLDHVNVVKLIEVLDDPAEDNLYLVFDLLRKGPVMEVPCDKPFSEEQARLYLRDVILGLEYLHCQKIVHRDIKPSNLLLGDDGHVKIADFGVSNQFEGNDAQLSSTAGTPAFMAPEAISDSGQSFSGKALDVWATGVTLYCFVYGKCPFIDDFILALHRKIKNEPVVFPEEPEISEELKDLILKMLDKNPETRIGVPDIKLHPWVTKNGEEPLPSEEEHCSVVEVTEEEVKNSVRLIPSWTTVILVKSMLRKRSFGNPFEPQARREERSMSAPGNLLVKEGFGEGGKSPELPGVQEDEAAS
# T2 sequence (P00519 whole entry): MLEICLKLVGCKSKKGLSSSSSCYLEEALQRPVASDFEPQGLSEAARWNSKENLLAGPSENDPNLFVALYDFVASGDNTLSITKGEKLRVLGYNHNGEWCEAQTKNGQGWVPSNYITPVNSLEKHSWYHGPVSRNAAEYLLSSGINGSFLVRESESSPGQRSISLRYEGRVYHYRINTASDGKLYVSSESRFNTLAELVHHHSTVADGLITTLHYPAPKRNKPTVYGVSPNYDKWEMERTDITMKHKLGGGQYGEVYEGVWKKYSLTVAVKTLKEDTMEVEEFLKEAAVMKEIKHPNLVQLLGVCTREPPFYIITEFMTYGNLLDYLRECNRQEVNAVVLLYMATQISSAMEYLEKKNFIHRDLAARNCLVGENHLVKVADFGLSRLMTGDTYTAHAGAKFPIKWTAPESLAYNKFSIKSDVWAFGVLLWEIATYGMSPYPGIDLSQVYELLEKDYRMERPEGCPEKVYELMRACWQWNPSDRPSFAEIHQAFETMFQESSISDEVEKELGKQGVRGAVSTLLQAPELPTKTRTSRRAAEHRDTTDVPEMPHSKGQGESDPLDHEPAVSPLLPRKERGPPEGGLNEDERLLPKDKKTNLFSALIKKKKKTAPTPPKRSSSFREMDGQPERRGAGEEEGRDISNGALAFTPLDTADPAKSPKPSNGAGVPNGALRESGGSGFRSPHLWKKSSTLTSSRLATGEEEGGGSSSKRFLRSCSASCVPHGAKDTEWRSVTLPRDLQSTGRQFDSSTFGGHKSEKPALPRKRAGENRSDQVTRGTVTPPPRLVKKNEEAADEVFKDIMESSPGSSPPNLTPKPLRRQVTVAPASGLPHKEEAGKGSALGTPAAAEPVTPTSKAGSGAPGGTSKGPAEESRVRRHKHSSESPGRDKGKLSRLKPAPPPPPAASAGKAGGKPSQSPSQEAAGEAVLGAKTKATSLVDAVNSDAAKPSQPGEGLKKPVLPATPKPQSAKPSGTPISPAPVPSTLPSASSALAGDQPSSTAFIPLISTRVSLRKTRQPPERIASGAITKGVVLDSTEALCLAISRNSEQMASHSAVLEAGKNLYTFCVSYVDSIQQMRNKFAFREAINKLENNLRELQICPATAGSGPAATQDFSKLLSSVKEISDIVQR
# T4 sequence (Q16288 32-839): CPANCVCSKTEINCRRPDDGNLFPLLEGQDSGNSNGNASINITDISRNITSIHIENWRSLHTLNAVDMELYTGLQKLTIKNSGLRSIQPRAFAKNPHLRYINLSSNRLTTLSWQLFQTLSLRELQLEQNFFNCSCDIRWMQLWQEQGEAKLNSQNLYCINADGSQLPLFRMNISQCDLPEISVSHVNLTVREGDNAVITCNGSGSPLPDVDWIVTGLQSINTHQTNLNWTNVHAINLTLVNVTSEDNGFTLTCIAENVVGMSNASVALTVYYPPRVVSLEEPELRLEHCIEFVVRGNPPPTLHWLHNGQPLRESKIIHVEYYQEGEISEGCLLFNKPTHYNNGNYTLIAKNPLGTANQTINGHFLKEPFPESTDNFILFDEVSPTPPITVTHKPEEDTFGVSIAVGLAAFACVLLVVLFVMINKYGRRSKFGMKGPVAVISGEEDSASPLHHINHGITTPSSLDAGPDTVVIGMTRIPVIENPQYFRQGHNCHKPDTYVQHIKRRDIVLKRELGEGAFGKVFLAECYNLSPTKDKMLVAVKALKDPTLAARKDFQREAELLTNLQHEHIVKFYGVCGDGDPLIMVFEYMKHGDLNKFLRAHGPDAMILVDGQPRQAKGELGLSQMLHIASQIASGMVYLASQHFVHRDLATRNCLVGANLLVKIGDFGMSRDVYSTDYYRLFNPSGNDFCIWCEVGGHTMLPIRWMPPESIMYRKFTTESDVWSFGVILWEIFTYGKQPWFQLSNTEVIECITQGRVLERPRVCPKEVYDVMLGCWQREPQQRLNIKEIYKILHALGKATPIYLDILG
# T1 sequence (P10721 26-976): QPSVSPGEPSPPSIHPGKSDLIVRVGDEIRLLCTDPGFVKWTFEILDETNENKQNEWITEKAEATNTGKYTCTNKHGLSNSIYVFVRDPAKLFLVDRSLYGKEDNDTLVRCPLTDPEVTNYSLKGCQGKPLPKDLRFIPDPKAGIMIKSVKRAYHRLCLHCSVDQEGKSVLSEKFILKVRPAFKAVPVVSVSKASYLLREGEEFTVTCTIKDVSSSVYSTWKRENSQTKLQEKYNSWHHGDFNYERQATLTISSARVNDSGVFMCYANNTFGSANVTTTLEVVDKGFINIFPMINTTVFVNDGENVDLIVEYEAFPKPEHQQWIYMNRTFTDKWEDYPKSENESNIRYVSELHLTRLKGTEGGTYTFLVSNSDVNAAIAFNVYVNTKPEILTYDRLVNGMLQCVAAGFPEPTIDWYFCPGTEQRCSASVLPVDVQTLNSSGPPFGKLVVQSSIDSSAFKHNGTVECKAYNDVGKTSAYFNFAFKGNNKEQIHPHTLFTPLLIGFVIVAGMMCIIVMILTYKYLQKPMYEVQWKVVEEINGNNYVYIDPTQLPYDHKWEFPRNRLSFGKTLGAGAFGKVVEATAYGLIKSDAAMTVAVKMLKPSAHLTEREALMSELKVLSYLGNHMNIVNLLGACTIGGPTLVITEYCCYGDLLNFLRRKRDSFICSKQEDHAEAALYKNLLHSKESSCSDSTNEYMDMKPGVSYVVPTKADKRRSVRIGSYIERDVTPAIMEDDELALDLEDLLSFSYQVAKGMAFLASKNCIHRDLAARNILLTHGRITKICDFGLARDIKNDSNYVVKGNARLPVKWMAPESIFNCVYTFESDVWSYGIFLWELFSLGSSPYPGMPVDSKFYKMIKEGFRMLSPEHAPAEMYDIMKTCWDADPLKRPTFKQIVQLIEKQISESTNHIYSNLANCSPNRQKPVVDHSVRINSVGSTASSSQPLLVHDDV
# T18 sequence (P00533 25-1210): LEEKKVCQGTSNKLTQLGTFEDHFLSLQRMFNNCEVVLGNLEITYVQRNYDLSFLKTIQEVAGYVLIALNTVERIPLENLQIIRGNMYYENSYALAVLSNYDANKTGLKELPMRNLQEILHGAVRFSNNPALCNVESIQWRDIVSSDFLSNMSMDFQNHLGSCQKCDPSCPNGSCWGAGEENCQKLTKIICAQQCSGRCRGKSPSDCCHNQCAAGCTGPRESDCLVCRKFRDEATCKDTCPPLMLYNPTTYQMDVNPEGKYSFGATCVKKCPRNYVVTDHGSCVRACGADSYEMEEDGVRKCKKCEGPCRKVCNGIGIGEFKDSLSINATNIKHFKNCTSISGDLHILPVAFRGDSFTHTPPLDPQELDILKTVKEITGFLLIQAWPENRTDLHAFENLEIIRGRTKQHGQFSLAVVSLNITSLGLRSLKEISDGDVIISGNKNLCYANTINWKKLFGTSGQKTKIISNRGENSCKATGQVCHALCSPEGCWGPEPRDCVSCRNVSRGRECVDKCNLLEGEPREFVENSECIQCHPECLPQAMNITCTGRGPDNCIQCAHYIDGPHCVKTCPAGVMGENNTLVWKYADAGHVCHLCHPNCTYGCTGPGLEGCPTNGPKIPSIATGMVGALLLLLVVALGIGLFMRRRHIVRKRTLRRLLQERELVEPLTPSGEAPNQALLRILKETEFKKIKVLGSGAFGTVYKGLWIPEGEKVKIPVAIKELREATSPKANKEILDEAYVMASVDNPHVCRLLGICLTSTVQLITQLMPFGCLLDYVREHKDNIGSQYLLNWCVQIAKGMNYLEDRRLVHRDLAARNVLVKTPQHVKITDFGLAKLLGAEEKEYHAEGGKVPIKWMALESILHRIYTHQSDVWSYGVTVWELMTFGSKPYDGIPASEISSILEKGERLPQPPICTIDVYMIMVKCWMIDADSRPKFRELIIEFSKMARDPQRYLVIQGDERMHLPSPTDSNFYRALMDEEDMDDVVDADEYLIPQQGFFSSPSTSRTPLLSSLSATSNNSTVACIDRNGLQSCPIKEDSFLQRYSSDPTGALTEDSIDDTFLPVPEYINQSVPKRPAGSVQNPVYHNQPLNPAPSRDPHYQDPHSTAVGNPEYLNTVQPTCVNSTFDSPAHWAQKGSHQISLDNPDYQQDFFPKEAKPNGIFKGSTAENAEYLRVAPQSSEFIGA
# T16 sequence (P27361 whole entry): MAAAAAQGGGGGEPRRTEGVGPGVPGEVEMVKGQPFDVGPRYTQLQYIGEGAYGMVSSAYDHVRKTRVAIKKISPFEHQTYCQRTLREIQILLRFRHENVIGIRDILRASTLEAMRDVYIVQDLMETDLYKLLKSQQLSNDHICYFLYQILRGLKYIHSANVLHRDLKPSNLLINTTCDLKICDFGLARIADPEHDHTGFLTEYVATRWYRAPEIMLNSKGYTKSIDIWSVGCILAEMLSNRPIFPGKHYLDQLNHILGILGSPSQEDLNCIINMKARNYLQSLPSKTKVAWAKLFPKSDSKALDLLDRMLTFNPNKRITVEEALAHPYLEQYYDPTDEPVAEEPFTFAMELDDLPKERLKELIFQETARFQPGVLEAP
structure (smiles),measurement,setting,value
"CCN1CCN(Cc2cc(C(=O)Nc3ccc4[nH]c(-c5ccc6cn[nH]c6c5)nc4c3)cc(C(F)(F)F)c2)CC1 [8r, N-(2-(1H-Indazol-6-yl)-1H-benzo[d]imidazol-5-yl)-3-((4-ethylpiperazin-1-yl)methyl)-5-(trifluoromethyl)benzamide]",IC50,c-Kit,4570 nM
same,inhibition at 1 µM,c-Kit; read-out: % Inhibition c-Kit,19%
same,IC50,ABL1,3090 nM
same,inhibition at 1 µM,ABL1; read-out: % Inhibition ABL1,18.4%
same,IC50,CAMKK1,395 nM
same,inhibition at 1 µM,CAMKK1; read-out: % Inhibition CAMKK1,> 20%
same,inhibition at 1 µM,"CAMKK1; read-out: % Inhibition CAMKK1, 8r at 1 µM single dose",32.5%
same,IC50,TRKC,1520 nM
same,inhibition at 1 µM,TRKC,> 20%
same,IC50,FLT3 (ITD)-NPOS,41.5 nM
same,inhibition at 1 µM,FLT3 (ITD)-NPOS,88%
same,IC50,FLT3 (ITD)-W51,22.8 nM
same,inhibition at 1 µM,FLT3 (ITD)-W51; read-out: % Inhibition FLT3 (ITD)-W51,93.9%
same,IC50,FLT3 (F594_R595 ins R),37.3 nM
same,inhibition at 1 µM,FLT3 (F594_R595 ins R); read-out: % Inhibition FLT3 (F594_R595insR),92%
same,IC50,FLT3 (R595_E596 ins EY),24.8 nM
same,inhibition at 1 µM,FLT3 (R595_E596 ins EY); read-out: % Inhibition FLT3 (R595_E596insEY),93.9%
same,IC50,[1],49.5 nM
same,inhibition at 1 µM,[1]; read-out: % Inhibition FLT3 (Y591_V592insVDFREYEYD),90.9%
same,inhibition at 1 µM,BRAF (V599E),1%
same,inhibition at 1 µM,ALK,7.5%
same,inhibition at 1 µM,AKT1,3.09%
same,inhibition at 1 µM,c-MER,7.3%
same,inhibition at 1 µM,FMS,0.531%
same,inhibition at 1 µM,FGFR3,0%
same,inhibition at 1 µM,c-Src,1.94%
same,inhibition at 1 µM,ERK1,0%
same,inhibition at 1 µM,AXL,1.88%
same,inhibition at 1 µM,EGFR,0.274%
same,inhibition at 1 µM,Aurora A,7.47%
same,inhibition at 1 µM,FLT3-ITD,88%
same,inhibition at 1 µM,AXL (R499C),6.64%
same,inhibition at 1 µM,c-MET,6.53%
same,inhibition at 1 µM,FYN,18%
same,inhibition at 1 µM,BTK,17.5%
same,melting point,,265 to 267 °C
"CCN1CCC(Nc2cc(C(=O)Nc3ccc4[nH]c(-c5ccc6cn[nH]c6c5)nc4c3)cc(C(F)(F)F)c2)CC1 [8t, N-(2-(1H-Indazol-6-yl)-1H-benzo[d]imidazol-5-yl)-3-((1-ethylpiperidin-4-yl)amino)-5-(trifluoromethyl)benzamide]",IC50,FLT3 wild type,285 nM
same,IC50,FLT3 (D835Y),87 nM
same,melting point,,166 to 168 °C
"CCN1CCN(Cc2cc(C(=O)Nc3ccc4[nH]c(-c5ccc6cn[nH]c6c5)nc4c3)cc(C(F)(F)F)c2)CC1(C)C [8y, N-(2-(1H-Indazol-6-yl)-1H-benzo[d]imidazol-5-yl)-3-((4-ethyl-3,3-dimethylpiperazin-1-yl)methyl)-5-(trifluoromethyl)benzamide]",IC50,FLT3 wild type,145 nM
same,IC50,FLT3 (D835Y),42 nM
same,melting point,,255 to 257 °C
"CN1CCCC(Nc2cc(C(=O)Nc3ccc4[nH]c(-c5ccc6cn[nH]c6c5)nc4c3)cc(C(F)(F)F)c2)C1 (stereo not shown) [8v, N-(2-(1H-Indazol-6-yl)-1H-benzo[d]imidazol-5-yl)-3-((1-methylpiperidin-3-yl)amino)-5-(trifluoromethyl)benzamide]",IC50,FLT3 wild type,107 nM
same,IC50,FLT3 (D835Y),8.86 nM and 9 nM
same,fold more potent against FLT3-D835Y than against wild-type FLT3,FLT3 (D835Y); ratio of IC50 values,7- to 12 fold
same,melting point,,213 to 214 °C
"O=C(Nc1ccc2[nH]c(-c3ccc4cn[nH]c4c3)nc2c1)c1ccc(Cl)c(Cl)c1 [8j, N-(2-(1H-Indazol-6-yl)-1H-benzo[d]imidazol-5-yl)-3,4-dichlorobenzamide]",IC50,FLT3 wild type,514 nM
same,IC50,FLT3 (D835Y),103 nM
same,melting point,,255 to 257 °C
"CCN1CCN(Cc2ccc(C(=O)Nc3ccc4[nH]c(-c5ccc6cn[nH]c6c5)nc4c3)cc2C(F)(F)F)CC1 [8w, N-(2-(1H-Indazol-6-yl)-1H-benzo[d]imidazol-5-yl)-4-((4-ethylpiperazin-1-yl)methyl)-3-(trifluoromethyl)benzamide]",IC50,FLT3 wild type,290 nM
same,IC50,FLT3 (D835Y),13 nM
same,melting point,,164 to 166 °C
